The source of these data is patent US20260209242A1, “CAMPTOTHECIN DERIVATIVE, PHARMACEUTICAL COMPOSITION, AND PREPARATION METHOD AND USE THEREFOR” (priority 2022, published 2026).

The structures appear in SMILES notation. pIC50: −log10 of the molar value. ≈ marks a conversion by molar mass, not a printed value.

One series has as its system MDA-MB-468. As to the kind of experiment: Inhibition of proliferation of cells MDA-MB-468 (CelltiterGlo, 72 h). The class given is cell-based. As to conditions: Homo sapiens; MDA-MB-468 cells, 72 h, CTG; read-out: IC50 (nM), antiproliferative activity on MDA-MB-468. Here is the method: • (1) Cell plating: first, tumor cells MDA-MB-468 were cultured using a corresponding culture medium, trypsinized, centrifuged, resuspended for counting, adjusted to an appropriate concentration, and then plated on a 384-well plate. • (2) Co-incubation of the compounds and tumor cells: after the cells adhered to the wall, 100 nL of a diluted bioactive substance (test compound) was added to the cell culture plate using ECHO, the final concentration of DMSO in wells of the cell plate was 0.33%, and the incubation was performed in an incubator at 37° C. with […] for 72 h. • (3) After the incubation was complete, 30 μL of a CTG reagent (CelltiterGlo kit) was added to each well. The culture was oscillated on a fast oscillator for 2 min, centrifuged at 1,000 rpm for 1 min, and kept away from light at room temperature for 30 min. The chemiluminescence signal value was read using an Envision instrument. • (4) Cell viability detection: IC50 was calculated using GraphPad Prism 8 software, and the IC50 of the compounds was obtained using the following nonlinear fitting formula (see Table 2):
[formula] • Y: inhibition rate: X: log value of compound concentration;
[formula] • high-reading control wells: cells with addition of 100 nL DMSO; and • low-reading control wells: cell-free wells.
For orientation: Cellular ATP, detected with luciferase, serves as a proxy for viable cell number.

A short description of series [1]: Kinetic solubility test in PBS 7.4. The series is classed as physicochemical. Here is the method:
10 mM stock solutions of the test substances 6-2, 11-2, 17-2, Dxd, and the control drugs progesterone and diclofenac were prepared using DMSO respectively.
15 μL of 10 mM stock solution of each of the test substances was added to a corresponding position of a corresponding 96-well plate in a specified sequence. 485 μL of the PBS 7.4 was added to a corresponding vial on a sample plate. The experiment was run in duplicate. Each vial was additionally provided with a stirring rod and was plugged. Then, the sample plate was transferred in a thermostatic mixer, and oscillated at a revolving speed of 1,100 rpm at 25° C. for 2 h. 2 h later, the plug was removed, the stirring rod was attracted away with a large magnet, and then the sample was transferred from the sample plate to the filter plate. Negative pressure was generated using a vacuum pump to filter the sample. 5 μL of filtrate and 5 μL of blank DMSO were transferred to another sample plate, and then 490 μL of internal standard water (acetonitrile:water=1:1) containing the internal standard was added. Depending on peak shapes, a certain proportion of internal standard water may be used to dilute the sample diluent to obtain better peak shapes.
6 μL was transferred from the 10 mM DMSO stock solution plate to a blank plate, and was prepared into a 300 μM standard substance solution with addition of 194 μL of DMSO. 5 μL was transferred from the 300 μM standard substance solution plate to still another blank plate, and then 5 μL of blank buffer and 490 μL of the internal standard water containing the internal standard (acetonitrile:water=1:1) were added until a final concentration of the standard substance solution was 3 μM.
An injection plate was transferred on an injection tray of an autosampler to evaluate the sample by LC/MS analysis.
All calculations were performed using Microsoft Excel.
The sample filtrate was analyzed and quantified by qualitative and quantitative LC/MS of standard substance peaks at known concentrations. The calculation formula for the solubility values of the reference drugs and the test substances are as follows:
[Sample] is the compound concentration, DFSample refers to the sample dilution factor, [STD] is the standard substance concentration of the compound, AREAStd is the standard substance peak area of the compound, and AREASample is the peak area of the compound sample.

Series [2] is described as follows: Pharmacokinetic test in SD rats. As to conditions: male, Sprague-Dawley (SD), rat, in vivo, iv, 2 mg/kg. Here is the method:
After a single intravenous injection (dose: 2 mpk) of the compounds 6-2, 11-2, 17-2, and Dxd into male SD rats (blood collection time points: 0.083 h, 0.25 h, 0.5 h, 1 h, 2 h, 4 h, 8 h, and 24 h after IV administration, totaling 8 blood collection time points), average pharmacokinetic parameters in the plasma are as shown in Table 5: […]

The nature of series [3]: Stability of compounds in human plasma. The class given is in vitro ADME. The protocol: • (1) 199 μL of human plasma was added to the culture plate of each cell. The culture plate was preheated to 37° C., and kept at this temperature for 15 min. • (2) After preincubation, 1 μL of 1 mmol/L each test compound and 1 μL of 1 mmol/L control compound were added to 199 μL of plasma, so that a final concentration of each test compound was 5 μmol/L and that of the control compound was 5 gmol/L. The final concentration of the organic solvent was 0.5%. The experiment would be duplicated twice. • (3) Reaction samples were incubated at 37° C. • (4) The reaction was stopped by adding 600 μL of cold methanol containing the internal standard at 0, 1, 2, 6, and 24 h. Each sample was vortex mixed for 10 min, and then centrifuged at 3,220 g for 30 min to precipitate the protein. […] Based on the signal response and peak shapes of liquid chromatography-mass spectrometry (LC-MS), the supernatant would be diluted with ultrapure water.
All calculations were performed using Microsoft Excel. The peak area ratio was determined from the chromatogram of extracted ions. The percentage of compounds remaining at each time point was calculated as per the following formula: […]

The nature of series [4]: Stability of compounds in human plasma. The series is classed as in vitro ADME. As to conditions: 5 μmol/L.
The next series concerns the target CYP2D6 (Homo sapiens, UniProt P10635). As to the kind of experiment: Inhibition on human hepatomicrosomes CYP2D6.

Chain of CYP2D6 (P10635 whole entry): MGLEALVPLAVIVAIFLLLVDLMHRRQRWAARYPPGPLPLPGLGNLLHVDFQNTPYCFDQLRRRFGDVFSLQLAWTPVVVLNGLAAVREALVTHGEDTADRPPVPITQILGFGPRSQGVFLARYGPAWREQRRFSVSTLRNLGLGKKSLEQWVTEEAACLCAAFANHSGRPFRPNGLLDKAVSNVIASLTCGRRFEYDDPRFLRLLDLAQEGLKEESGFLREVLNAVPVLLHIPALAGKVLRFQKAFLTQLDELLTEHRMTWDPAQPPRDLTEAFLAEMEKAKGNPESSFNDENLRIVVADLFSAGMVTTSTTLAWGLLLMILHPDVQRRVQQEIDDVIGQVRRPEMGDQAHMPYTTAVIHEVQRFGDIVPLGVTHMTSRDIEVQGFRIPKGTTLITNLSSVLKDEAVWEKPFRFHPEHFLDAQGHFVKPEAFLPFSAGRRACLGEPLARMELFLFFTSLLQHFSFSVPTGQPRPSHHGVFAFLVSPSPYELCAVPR

With `CC[C@@]1(O)C(=O)OCc2c1cc1n(c2=O)Cc2c-1nc1cc(F)c(C)c3c1c2[C@@H](NC(=O)[C@@H](O)C1CC1)CCC3` [Compound 11-2, (S)-2-cyclopropyl-N-((1S,10S)-10-ethyl-6-fluoro-10-hydroxy-5-methyl-11,14-dioxo-1,2,3,4,10,11,14,16-octahydro-13H-cyclohepta[de]pyrano[3′,4′:6,7]indolizino[1,2-b]quinolin-1-yl)-2-hydroxyacetamide], the concentration for half-maximal inhibition (IC50) in the series with MDA-MB-468 is 4.5 nM. For the same compound, in series [1], the “solubility in the PBS 7.4 compared with Dxd (in words)” value is on record as “significantly better solubility in the PBS 7.4 than Dxd”. Moreover, the solubility at 2 h in series [1] (25 °C, pH 7.4, aqueous buffer, kinetic from dmso stock) was 34 µM (≈ 18.6 µg/mL). In series [2], this compound displayed an AUC(0-inf) of 465 ng·h/mL, an AUC(0-t) of 460 ng·h/mL, a C0 of 848 ng/mL and a volume of distribution (Vd) of 3.01 L/kg. In series [2], this compound had a clearance of 72.7 mL/min/kg and a half-life of 37.8 min. In addition, the “Residual percentage (%) 1 h” value in series [3] (1 h, 5 μmol/L) was 96.80%. The “Residual percentage (%) 2 h” value in series [3] (2 h, 5 μmol/L) was found to be 92.06%. The “Residual percentage (%) 6 h” value in series [3] (6 h, 5 μmol/L) came out at 94.45%. In addition, the “Residual percentage (%) 24 h” value in series [3] (24 h, 5 μmol/L) was 88.81%. Besides, the “stability in human plasma (in words)” value in series [3] (plasma) is reported as “good stability in human plasma”. Moreover, in series [4], the “Residual percentage (%) 4 h” value is recorded as 93.40%. Moreover, at CYP2D6, the negative-log IC50 (pIC50) is less than 4.52.

Usually IC50 stands for the point on the concentration scale where inhibition reaches its midpoint. As usually defined, the solubility is how much of the substance goes into solution per volume. A higher solubility goes with much dissolved substance. What is called AUC(0-inf) is total exposure, with the tail of the curve extrapolated. The low end stands for low exposure, the high end for high exposure. A word on the AUC(0-t): it is exposure summed from dosing to a finite time, without extrapolation to infinity. Low values mean less exposure, high ones more exposure. Usually Vd stands for the apparent volume that relates the amount in the body to the concentration in plasma or blood. Low values mean little distribution into tissue, high ones wide distribution into tissue. For orientation: clearance means a measure of how efficiently the substance is removed, as volume per time. As usually defined, the half-life is the time needed for the level to fall by half in the phase considered. A high value points to slow loss. For orientation: pIC50 means the IC50 on a negative log10 scale, so that one unit is a factor of ten.
